Test results: publication PMC9147192, “Small Molecule Arranged Thermal Proximity Coaggregation (smarTPCA)—A Novel Approach to Characterize Protein–Protein Interactions in Living Cells by Similar Isothermal Dose–Responses” (International Journal of Molecular Sciences, 2022)

Assays:
RARS = target: T1, RARS (Homo sapiens, UniProt P54136); experiment: TPP-CCR in living HL-60 cells; assay type: cell-based
T1 construct: endogenous in cells; host or cells: HL-60 (ATCC CCL-240)
T1 sequence (P54136 1-660): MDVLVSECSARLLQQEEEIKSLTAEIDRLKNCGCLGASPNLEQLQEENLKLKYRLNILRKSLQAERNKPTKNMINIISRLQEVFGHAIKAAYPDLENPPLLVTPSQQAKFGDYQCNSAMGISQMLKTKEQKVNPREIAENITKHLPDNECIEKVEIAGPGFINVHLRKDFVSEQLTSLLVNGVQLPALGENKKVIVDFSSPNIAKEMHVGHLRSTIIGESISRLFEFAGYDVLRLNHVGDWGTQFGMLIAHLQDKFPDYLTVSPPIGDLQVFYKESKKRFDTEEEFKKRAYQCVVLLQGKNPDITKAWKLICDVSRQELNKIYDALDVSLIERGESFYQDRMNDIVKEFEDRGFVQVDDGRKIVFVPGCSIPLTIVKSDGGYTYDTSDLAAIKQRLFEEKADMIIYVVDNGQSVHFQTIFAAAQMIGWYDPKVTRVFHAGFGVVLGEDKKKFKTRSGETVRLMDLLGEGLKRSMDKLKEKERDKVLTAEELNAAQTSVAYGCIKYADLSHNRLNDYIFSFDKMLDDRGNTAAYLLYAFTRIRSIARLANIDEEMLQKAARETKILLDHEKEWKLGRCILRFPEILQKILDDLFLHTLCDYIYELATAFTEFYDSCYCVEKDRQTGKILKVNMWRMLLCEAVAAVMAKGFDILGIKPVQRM

SCO1 = target: T2, SCO1 (Homo sapiens, UniProt O75880); experiment: TPP-CCR in living HL-60 cells; assay type: cell-based
T2 construct: endogenous in cells; host or cells: HL-60 (ATCC CCL-240)
T2 sequence (O75880 68-301): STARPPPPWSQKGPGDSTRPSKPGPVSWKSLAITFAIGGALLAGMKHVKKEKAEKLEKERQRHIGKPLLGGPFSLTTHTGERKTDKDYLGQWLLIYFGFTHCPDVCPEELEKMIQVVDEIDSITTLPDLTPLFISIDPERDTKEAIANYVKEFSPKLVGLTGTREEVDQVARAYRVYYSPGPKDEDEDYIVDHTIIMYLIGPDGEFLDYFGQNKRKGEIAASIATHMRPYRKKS

[1] = living HL-60 cells, […] °C, TMT-MS

Cc1cnc(Nc2ccc(F)cc2Cl)nc1-c1c[nH]c(C(=O)N[C@H](CO)c2cccc(Cl)c2)c1 [ERK 11e]
Hill slope (RARS; TPP-CCR, living cells, RARS): 0.38
EC50 (RARS; [1]): 83.2 nM
Hill slope (RARS) (RARS; [1]): 0.38
Hill slope (SCO1; TPP-CCR, living cells, SCO1): 1.25
Hill slope (SCO1) (SCO1; [1]): 1.25
EC50 (SCO1; living HL-60 cells, […] °C, TMT-MS, read-out: pEC50 (SCO1) (converted)): 2820 nM
